Experimental data from the NIST ThermoML archive (doi:10.1016/j.jct.2005.10.004).
Several values for one entry are separate records, joined by “and”; a condition that tells them apart may be missing. Identical values can stand only once.

Test: xn = mol fraction of the nth substance listed
Conditions: Gas, Buoyancy - hydrostatic balance with magnetic suspension - one sinker

N#N [nitrogen] + C
Conditions	mass density
240 K, 2107.5 kPa, x2 = 0.8998	19.5904 kg/m3 and 19.5908 kg/m3
240 K, 4055.5 kPa, x2 = 0.8998	40.6283 kg/m3
240 K, 8017.2 kPa, x2 = 0.8	96.5565 kg/m3
240 K, 8864.8 kPa, x2 = 0.8	109.578 kg/m3
240 K, 12048 kPa, x2 = 0.8	159.33 kg/m3
240 K, 13511 kPa, x2 = 0.8998	181.648 kg/m3
240.01 K, 1951.7 kPa, x2 = 0.8	19.1493 kg/m3 and 19.149 kg/m3
240.01 K, 3991.5 kPa, x2 = 0.8	41.8987 kg/m3
240.01 K, 3991.7 kPa, x2 = 0.8	41.901 kg/m3
240.01 K, 6011.9 kPa, x2 = 0.8	67.6707 kg/m3
240.01 K, 6012.2 kPa, x2 = 0.8	67.6768 kg/m3
240.01 K, 7076 kPa, x2 = 0.8	82.6152 kg/m3
240.01 K, 8017.6 kPa, x2 = 0.8	96.5609 kg/m3
240.01 K, 8026.3 kPa, x2 = 0.8998	94.9591 kg/m3
240.01 K, 10028 kPa, x2 = 0.8998	127.626 kg/m3
240.01 K, 10029 kPa, x2 = 0.8998	127.633 kg/m3
240.01 K, 10372 kPa, x2 = 0.8	133.317 kg/m3 and 133.315 kg/m3
240.01 K, 12048 kPa, x2 = 0.8	159.332 kg/m3
240.01 K, 12090 kPa, x2 = 0.8998	160.982 kg/m3
240.01 K, 13638 kPa, x2 = 0.8	182.319 kg/m3
240.01 K, 15026 kPa, x2 = 0.8998	200.798 kg/m3
240.02 K, 6035.6 kPa, x2 = 0.8998	65.6527 kg/m3
249.91 K, 2443.9 kPa, x2 = 0.8	23.1504 kg/m3
249.91 K, 2444.1 kPa, x2 = 0.8	23.1522 kg/m3
249.91 K, 2444.9 kPa, x2 = 0.8	23.1598 kg/m3
249.91 K, 5015.8 kPa, x2 = 0.8	51.0598 kg/m3
249.91 K, 5016 kPa, x2 = 0.8	51.0618 kg/m3
249.91 K, 7570.5 kPa, x2 = 0.8	82.6548 kg/m3
249.92 K, 7570.8 kPa, x2 = 0.8	82.6605 kg/m3
249.92 K, 8909.9 kPa, x2 = 0.8	100.551 kg/m3
249.92 K, 8910.5 kPa, x2 = 0.8	100.56 kg/m3
249.92 K, 8911 kPa, x2 = 0.8	100.565 kg/m3
249.93 K, 10917 kPa, x2 = 0.8	128.204 kg/m3
249.93 K, 12900 kPa, x2 = 0.8	155.107 kg/m3
249.93 K, 12901 kPa, x2 = 0.8	155.123 kg/m3
249.93 K, 14257 kPa, x2 = 0.8	172.455 kg/m3
249.93 K, 14258 kPa, x2 = 0.8	172.479 kg/m3
249.93 K, 16938 kPa, x2 = 0.8	202.973 kg/m3
249.93 K, 16952 kPa, x2 = 0.8	203.124 kg/m3
249.94 K, 9596 kPa, x2 = 0.8	109.925 kg/m3
249.94 K, 10910 kPa, x2 = 0.8	128.101 kg/m3
249.99 K, 2003.4 kPa, x2 = 0.8998	17.6409 kg/m3
249.99 K, 2056.7 kPa, x2 = 0.8	19.2703 kg/m3
249.99 K, 3994.1 kPa, x2 = 0.8998	37.4833 kg/m3
249.99 K, 3994.2 kPa, x2 = 0.8998	37.4837 kg/m3
249.99 K, 4008 kPa, x2 = 0.8	39.6397 kg/m3
249.99 K, 6005.8 kPa, x2 = 0.8998	60.2899 kg/m3
249.99 K, 6017.6 kPa, x2 = 0.8	62.9683 kg/m3
249.99 K, 7544.1 kPa, x2 = 0.8	82.2685 kg/m3
249.99 K, 7544.6 kPa, x2 = 0.8	82.2725 kg/m3
249.99 K, 8074.6 kPa, x2 = 0.8998	86.7809 kg/m3
249.99 K, 8074.9 kPa, x2 = 0.8998	86.7846 kg/m3
249.99 K, 8075.1 kPa, x2 = 0.8998	86.7862 kg/m3
249.99 K, 10120 kPa, x2 = 0.8998	115.3 kg/m3
249.99 K, 10121 kPa, x2 = 0.8	117.092 kg/m3
249.99 K, 12763 kPa, x2 = 0.8998	152.294 kg/m3
249.99 K, 13368 kPa, x2 = 0.8	161.09 kg/m3
249.99 K, 13369 kPa, x2 = 0.8	161.093 kg/m3
250 K, 1972.2 kPa, x2 = 0.8998	17.3493 kg/m3
250 K, 2229 kPa, x2 = 0.8998	19.7632 kg/m3
250 K, 12762 kPa, x2 = 0.8998	152.28 kg/m3 and 152.282 kg/m3
250 K, 15168 kPa, x2 = 0.8998	182.264 kg/m3
250 K, 18609 kPa, x2 = 0.8998	216.303 kg/m3
274.8 K, 11276 kPa, x2 = 0.8	109.07 kg/m3
274.81 K, 2552.2 kPa, x2 = 0.8	21.5902 kg/m3
274.81 K, 2552.3 kPa, x2 = 0.8	21.5893 kg/m3
274.81 K, 5055.3 kPa, x2 = 0.8	44.7483 kg/m3
274.81 K, 5055.4 kPa, x2 = 0.8	44.7496 kg/m3
274.81 K, 7550.3 kPa, x2 = 0.8	69.666 kg/m3 and 69.6651 kg/m3
274.81 K, 7562.1 kPa, x2 = 0.8	69.788 kg/m3
274.81 K, 7562.6 kPa, x2 = 0.8	69.7929 kg/m3
274.81 K, 9501.7 kPa, x2 = 0.8	90.1191 kg/m3
274.81 K, 9502.3 kPa, x2 = 0.8	90.1254 kg/m3
274.81 K, 10330 kPa, x2 = 0.8	98.956 kg/m3
274.81 K, 10337 kPa, x2 = 0.8	99.0305 kg/m3
274.81 K, 11275 kPa, x2 = 0.8	109.063 kg/m3
274.81 K, 12889 kPa, x2 = 0.8	126.201 kg/m3
274.81 K, 12890 kPa, x2 = 0.8	126.206 kg/m3
274.81 K, 14325 kPa, x2 = 0.8	141.105 kg/m3
274.81 K, 14327 kPa, x2 = 0.8	141.128 kg/m3
274.81 K, 15731 kPa, x2 = 0.8	155.191 kg/m3
274.81 K, 15733 kPa, x2 = 0.8	155.216 kg/m3
274.81 K, 16797 kPa, x2 = 0.8	165.435 kg/m3
274.81 K, 16816 kPa, x2 = 0.8	165.609 kg/m3
274.82 K, 8425.3 kPa, x2 = 0.8	78.7622 kg/m3
274.82 K, 9439.5 kPa, x2 = 0.8	89.4646 kg/m3
274.82 K, 11275 kPa, x2 = 0.8	109.065 kg/m3
274.82 K, 11277 kPa, x2 = 0.8	109.088 kg/m3
274.82 K, 12811 kPa, x2 = 0.8	125.374 kg/m3
274.99 K, 2012.7 kPa, x2 = 0.8	16.8448 kg/m3
274.99 K, 2211 kPa, x2 = 0.8998	17.4645 kg/m3
274.99 K, 4076.7 kPa, x2 = 0.8	35.4308 kg/m3
274.99 K, 6021.2 kPa, x2 = 0.8	54.1463 kg/m3
274.99 K, 6055.4 kPa, x2 = 0.8998	51.8525 kg/m3
274.99 K, 8019.2 kPa, x2 = 0.8	74.4425 kg/m3
274.99 K, 10017 kPa, x2 = 0.8	95.4954 kg/m3
274.99 K, 11989 kPa, x2 = 0.8	116.514 kg/m3 and 116.518 kg/m3
274.99 K, 14080 kPa, x2 = 0.8	138.416 kg/m3
274.99 K, 15091 kPa, x2 = 0.8998	145.151 kg/m3
274.99 K, 15497 kPa, x2 = 0.8	152.681 kg/m3
274.99 K, 16131 kPa, x2 = 0.8	158.862 kg/m3 and 158.861 kg/m3
274.99 K, 16805 kPa, x2 = 0.8998	161.533 kg/m3 and 161.536 kg/m3
274.99 K, 17724 kPa, x2 = 0.8998	169.816 kg/m3
274.99 K, 17726 kPa, x2 = 0.8998	169.823 kg/m3
275 K, 2005.1 kPa, x2 = 0.8998	15.7688 kg/m3
275 K, 4053.8 kPa, x2 = 0.8998	33.2951 kg/m3
275 K, 6055.4 kPa, x2 = 0.8998	51.8523 kg/m3
275 K, 8023.2 kPa, x2 = 0.8998	71.384 kg/m3
275 K, 10028 kPa, x2 = 0.8998	92.2879 kg/m3
275 K, 11444 kPa, x2 = 0.8998	107.355 kg/m3
275 K, 13322 kPa, x2 = 0.8998	127.156 kg/m3
299.91 K, 2564.5 kPa, x2 = 0.8	19.5987 kg/m3 and 19.5993 kg/m3
299.91 K, 4995 kPa, x2 = 0.8	39.306 kg/m3
